2 compounds from patent publication US4217274A, “Methoxyethoxymethyl esters of penicillins” (Bristol-Myers Company, priority 1978, dated 1980) can be followed below.

In brackets after ≈: the same amount, converted by molar mass. Where two headings read alike, the source gives them in different places. Some results are limits rather than exact numbers.

A short description of data set [1]: Mouse blood levels after oral administration (disc diffusion bioassay, Bacillus subtilis). The conditions noted are these: in vivo, 100 mg/kg.
A further data set deals with Pr. morganii. Nature of the data set: MIC, antibiotic dilution technique (agar). It counts as cell-based. The note with it: Morganella morganii. From the text:
(§1) Bacteria. The organisms, preponderantly of recent clinical origin, were obtained from numerous sources of broad geographical distribution. Obligate anaerobes were maintained in Egg Meat Medium (Difco); Mycobacterium was stored on Lowenstein Medium (Jensen Modification; Difco). The techniques of storing all other organisms have been described previously [Leitner et al., BL-S640, A Cephalosporin with a Broad Spectrum of Antibacterial Activity: Properties in vitro, Antimicrob. Agents Chemother., 7, 298-305 (1975)].
(§2) Antibiotic spectrum. The growth-inhibitory activity of the compounds was determined by the antibiotic dilution technique. Procedures were as follows:
(§3) Aerobic organisms (excluding Mycobacterium). Except for Haemophilus and Neisseria, the assay was performed in Mueller-Hinton Medium (Difco). For fastidious organisms, i.e., Streptococcus, Listeria, Pasteurella, Bordetella and Vibrio, the medium was supplemented with 4% defibrinated sheep blood. The antibiotic susceptibility of Haemophilus and Neisseria was determined in GC Medium Base (BBL) supplemented with 1% Hemoglobin (BBL) and 1% Isovitalex (BBL).
(§4) Overnight broth cultures of an exponentially growing culture (Neisseria) served as the source of inoculum. A volume of approximately 0.003 ml. of the undiluted or diluted culture was applied to the surface of the antibiotic-containing agar plates with the inoculator of Steers et al., An Inocula Replicating Apparatus for Routine Testing of Bacterial Susceptibility to Antibiotics, Antibiot. Chemother., 9, 307-311, (1959). Cultures of Neisseria, Streptococcus pneumoniae, S. viridans and S. pyogenes were used without dilution; those of all other organisms were diluted 100-fold. The inoculum contained about 10^3 viable cells for Neisseria, 10^5 for S. pneumoniae and S. pyogenes, 10^6 for S. viridans and 10^4 for all other species.

The subject of a further data set is E. Coli. Nature of the data set: MIC, antibiotic dilution technique (agar). It counts as cell-based. The note with it: Escherichia coli.
Description: as §1, §2, §3, §4

A further data set concerns Pr. vulgaris. The experiment in a line: MIC, antibiotic dilution technique (agar). It is filed as cell-based. The conditions noted are these: Proteus vulgaris.
Description: as §1, §2, §3, §4

A further data set has as its system Ser. marcescens. Nature of the data set: MIC, antibiotic dilution technique (agar). It counts as cell-based. The note with it: Serratia marcescens.
Description: as §1, §2, §3, §4

The subject of another data set is Ps. aeruginosa. The experiment in a line: MIC, antibiotic dilution technique (agar). It counts as cell-based. The conditions noted are these: Pseudomonas aeruginosa.
Description: as §1, §2, §3, §4

The test system of the next data set is S. aureus. Nature of the data set: MIC, antibiotic dilution technique (agar). The conditions noted are these: Staphylococcus aureus. It is filed as cell-based.
Description: as §1, §2, §3, §4

A further data set relates to Str. faecalis. The experiment in a line: MIC, antibiotic dilution technique (agar). It is filed as cell-based. The note with it: Enterococcus faecalis.
Description: as §1, §2, §3, §4

The next data set deals with Pr. mirabilis. The experiment in a line: MIC, antibiotic dilution technique (agar). The conditions noted are these: Proteus mirabilis. It counts as cell-based.
Description: as §1, §2, §3, §4

In a further data set the test system is Str. pneumoniae. The experiment in a line: MIC, antibiotic dilution technique (agar). It is filed as cell-based. The note with it: Streptococcus pneumoniae.
Description: as §1, §2, §3, §4

A further data set relates to S. aureus Pen-Res. The experiment in a line: MIC, antibiotic dilution technique (agar). It is filed as cell-based. The note with it: Staphylococcus aureus.
Description: as §1, §2, §3, §4

A further data set concerns Pr. rettgeri. The experiment in a line: MIC, antibiotic dilution technique (agar). It is filed as cell-based. The conditions noted are these: Providencia rettgeri.
Description: as §1, §2, §3, §4

The next data set has as its system Ent. cloacae. The experiment in a line: MIC, antibiotic dilution technique (agar). It counts as cell-based. The conditions noted are these: Enterobacter cloacae.
Description: as §1, §2, §3, §4

A further data set deals with S. aureus Meth-Res. The experiment in a line: MIC, antibiotic dilution technique (agar). It counts as cell-based. The note with it: Staphylococcus aureus.
Description: as §1, §2, §3, §4

A further data set has as its system K. pneumoniae. The experiment in a line: MIC, antibiotic dilution technique (agar). It counts as cell-based. The conditions noted are these: Klebsiella pneumoniae.
Description: as §1, §2, §3, §4

The next data set deals with Str. pyogenes. The experiment in a line: MIC, antibiotic dilution technique (agar). It is filed as cell-based, S. pyogenes. The conditions noted are these: Streptococcus pyogenes.
Description: as §1, §2, §3, §4

The compound `CC1(C)S[C@@H]2[C@H](NC(=O)[C@H](N)c3ccc(O)cc3)C(=O)N2[C@H]1C(=O)O` [Amoxicillin, amoxicillin] displayed a concentration at 0.25 h in data set [1] of 9500 ng/mL. Moreover, the concentration at 0.5 h in data set [1] was determined as 16900 ng/mL. The same compound had a concentration at 1 h in [1] of 14200 ng/mL. In addition, in [1], the concentration at 1.5 h is 8700 ng/mL. The concentration at 2 h in data set [1] came to 6300 ng/mL. In data set [1], this compound had a concentration at 3 h of 3100 ng/mL. For the same compound, the MIC in the data set on Pr. morganii is 125 µg/mL (≈ 342 µM); in the data set on E. Coli (Table 2, E. coli, first line), 0.5 µg/mL (≈ 1.37 µM); against E. Coli (Table 2, E. coli, second line), above 125 µg/mL; with Pr. vulgaris (Table 2, Pr. vulgaris), 0.06 µg/mL (≈ 0.164 µM); against Ser. marcescens (Table 2, Ser. marcescens), 32 µg/mL (≈ 87.6 µM); with Ps. aeruginosa (Table 2, Ps. aeruginosa, first line), 125 µg/mL (≈ 342 µM). Further, the MIC against Ps. aeruginosa (Table 2, Ps. aeruginosa, second line) was above 125 µg/mL; against S. aureus (Table 2, S. aureus), 0.03 µg/mL (≈ 0.0821 µM); with S. aureus (Table 2, S. aureus + 50% serum), 0.06 µg/mL; in the data set on Str. faecalis (Table 2, Str. faecalis) it was 0.06 µg/mL (≈ 0.164 µM); in the data set on Pr. mirabilis (Table 2, Pr. mirabilis), 0.06 µg/mL (≈ 0.164 µM); with Str. pneumoniae (Table 2, Str. pneumoniae), 4 ng/mL (≈ 0.0109 µM). The minimal inhibitory concentration (MIC) in the data set on S. aureus Pen-Res. was above 125 µg/mL; against Pr. rettgeri (Table 2, Pr. rettgeri), 16 µg/mL (≈ 43.8 µM); against Ent. cloacae it was 125 µg/mL (≈ 342 µM); in the data set on Ent. cloacae (Table 2, Ent. cloacae, first line, read-out: MIC) it was 63 µg/mL (≈ 172 µM); against S. aureus Meth-Res. (Table 2, S. aureus Meth-Res.), 32 µg/mL (≈ 87.6 µM); against K. pneumoniae (Table 2, K. pneumoniae, first line) it was 125 µg/mL (≈ 342 µM). In addition, the MIC in the data set with K. pneumoniae (Table 2, K. pneumoniae, second line) is above 125 µg/mL; in the data set on Str. pyogenes (Table 2, Str. pyogenes), 4 ng/mL (≈ 0.0109 µM).
For `CC1(C)S[C@@H]2[C@H](N3C(=O)[C@@H](c4ccccc4)NC3(C)C)C(=O)N2[C@H]1C(=O)O` [Hetacillin, hetacillin], the MIC was determined as 16 µg/mL (≈ 41.1 µM) with Pr. morganii (Table 1, Pr. morganni, read-out: MIC); 1 µg/mL (≈ 2.57 µM) in the data set with E. Coli (Table 1, E. Coli, first line); 32 µg/mL (≈ 82.2 µM) against E. Coli (Table 1, E. Coli, second line); 0.06 µg/mL (≈ 0.154 µM) in the data set with Pr. vulgaris (Table 1, Pr. vulgaris); 16 µg/mL (≈ 41.1 µM) in the data set on Ser. marcescens (Table 1, Ser. marcescens); 63 µg/mL (≈ 162 µM) with Ps. aeruginosa (Table 1, Ps. aeruginosa, first line, read-out: MIC). Further, the MIC in the data set on Ps. aeruginosa (Table 1, Ps. aeruginosa, second line, read-out: MIC) worked out at 125 µg/mL (≈ 321 µM); against S. aureus (Table 1, S. aureus) it was 0.008 µg/mL (≈ 0.0205 µM); in the data set on S. aureus (Table 1, S. aureus + 50% serum) it was 0.016 µg/mL; in the data set with Str. faecalis (Table 1, Str. faecalis) it was 0.13 µg/mL (≈ 0.334 µM); against Pr. mirabilis (Table 1, Pr. mirabilis) it was 0.03 µg/mL (≈ 0.077 µM); in the data set on Str. pneumoniae (Table 1, Str. pneumoniae), 4 ng/mL (≈ 0.0103 µM). Also, the minimal inhibitory concentration (MIC) in the data set on S. aureus Pen-Res. (Table 1, S. aureus Pen-Res., read-out: MIC) came out at 125 µg/mL (≈ 321 µM); in the data set on Pr. rettgeri (Table 1, Pr. rettgeri) it was 8 µg/mL (≈ 20.5 µM); in the data set on Ent. cloacae (Table 1, Ent. cloacae, first line, read-out: MIC), 32 µg/mL (≈ 82.2 µM); with Ent. cloacae (Table 1, Ent. cloacae, second line, read-out: MIC) it was 63 µg/mL (≈ 162 µM); with S. aureus Meth-Res. (Table 1, S. aureus Meth-Res.), 16 µg/mL (≈ 41.1 µM); with K. pneumoniae (Table 1, K. pneumoniae, first line, read-out: MIC), 63 µg/mL (≈ 162 µM). Moreover, the minimum inhibitory concentration (MIC) stood at 63 µg/mL (≈ 162 µM) in the data set with K. pneumoniae (Table 1, K. pneumoniae, second line, read-out: MIC) and 4 ng/mL (≈ 0.0103 µM) with Str. pyogenes (Table 1, Str. pyogenes).
